We go through five molecules from patent US20260207616A1, “COMBINATION THERAPIES FOR TREATMENT OF HEARING DISORDERS” (GATEWAY BIOTECHNOLOGY, INC., priority 2023, published 2026).

In the assay the test system is tinnitus positive mice. Briefly: go/no-go trials, sound-based avoidance detection (SBAD) in noise-induced tinnitus mice. The class given is in vivo. The conditions noted are these: intraperitoneal injection; for dosage reached before the agent alone was effective in treating the animals tinnitus: single agent. How it is done:
With reference to FIGS. 1A-1D, single drug treatment of tinnitus is evaluated using the go/no-go methodology further elaborated upon in Example 4. With reference to FIGS. 2A-2B, multi drug treatment of tinnitus is evaluated using the go/no-go methodology further elaborated upon in Example 4. […] Using a shuttle box divided into two compartments, mice were trained to cross from side to side with sound cues in the “Go” trials and remain still in the absence of sound in the “No-Go” trials for 15 days. […] The sound cues were randomly played as white noise or narrow-band noise at 8,10,12.5,16, and 29 kHz with sound intensities randomly at 75, 80, or 85 dB. […] Additionally, a hurdle was added on training 11 to reinforce the training. After the 15th training day, mice were tested for 3 days to obtain a baseline score to be compared after noise exposure, as well as retraining for 3 days. Following the successful completion of training so that mice reached a high percentage of success in the trials, the mice were exposed to a noise-induced trauma for tinnitus over a two day period. To ensure that the mice still have their hearing, one ear was protected with an ear plug, while the other ear was exposed to the noise. The mice were placed in a sound booth where they were exposed to 120 dB broadband noise at 4-25 kHz for two hours. Following the noise exposure, the mice were housed for one month, and then tested to see if they have developed tinnitus. In these testing periods, the mice were tested for three days in the shuttle boxes, where they underwent the Go and No-Go trials, however in the No-Go trials the mice were not shocked, as it is expected that mice with tinnitus would cross compartments in the absence of a sound cue. The mice were continued to be shocked in the Go trials in order to ensure that they have retained their hearing and can hear the sound cues. […] To insure there is a significant difference in the No-Go trial scores, chi-square tests were completed comparing the post-noise exposure tests to the baseline tests. However, if tinnitus is not present in the mice, tests were done after waiting one more month, and another if needed. […] The Go and No-Go scores for the tests were compared using chi-square tests in Social Science Statistics and JASP. The chi-square tests were used first to determine whether mice were tinnitus positive by comparing the No-Go baseline scores pre-noise exposure to the No-Go post-noise exposure scores, with a significant difference (p-value<0.05) in at least 2 of the tests indicating a tinnitus positive mouse. Following this conclusion, the mice were tested accordingly to determine if their No-Go scores could be improved by different drug doses and combinations. […] The No-Go scores at 3 months post-noise exposure were compared to baselines to assess for tinnitus. Mice had significant decreases on all 3 days of testing. This indicates these mice had tinnitus. One or more mice is a control animal. In looking at the Go scores for the tinnitus animals when tested with the specified drugs, mice had significant decreases in their scores when. […] In contrast, a lack of change in the No-Go scores indicates the first and/or second agent was not effective in treating the animal's tinnitus, and decrease in the score may indicate that the animal's tinnitus was worsened.

For the molecule `CCOC(=O)C1=C(COCCN)NC(C)=C(C(=O)OC)C1c1ccccc1Cl` (centres unmarked) [AML, amlodipine], the “correct percentage result in the no-go trial” value is ~90% (AML 5 mg/kg) and ~95% (AML 8 mg/kg).

`NC(=O)N1c2ccccc2C=Cc2ccccc21` [CBZ, carbamazepine]: the “correct percentage result in the no-go trial” value is “less than 70%” (CBZ 5 mg/kg, within a margin of error of the saline dosed mice) and “less than 80%” (CBZ 8 mg/kg).

Take `CCC1(C)CC(=O)NC1=O` (centres unmarked) [ESM, ethosuximide]: where the note is “ESM 300 mg/kg”, the “correct percentage result in the no-go trial” value is on record as ~70%.

As for `COCCOC(=O)C1=C(C)NC(C)=C(C(=O)OC(C)C)C1c1cccc([N+](=O)[O-])c1` (centres unmarked) [NMDP, nimodipine], the “dosage reached before the agent alone was effective in treating the animals tinnitus” value is listed as “about 30 mg/kg”. In addition, the “correct percentage result in the no-go trial” value (NMDP 30 mg/kg) is recorded as ~95%. The “correct percentage result in the no-go trial” value (NMDP 50 mg/kg) is recorded as ~95%.

With `COc1ccc2cc1Oc1ccc(cc1)C[C@H]1c3cc(c(OC)cc3CCN1C)Oc1c(OC)c(OC)cc3c1[C@H](C2)N(C)CC3` [TET, tetrandrine], the “dosage reached before the agent alone was effective in treating the animals tinnitus” value was “about 30 mg/kg”. Moreover, the “correct percentage result in the no-go trial” value (TET 60 mg/kg) is listed as ~90%. In addition, the “correct percentage result in the no-go trial” value (TET 90 mg/kg) was ~95%.
